{"source": "patent US20070289032A1", "about": "“AGROBACTERIUM TRANSFORMATION OF GUAR” (SAMUEL ROBERTS NOBEL FOUNDATION, priority 2006, published 2007)", "format_in_all_cases": "cell-based, Cyamopsis tetragonoloba", "key": {"[1]": {"system": "cotyledonary node explants of guar variety Kinman", "assay": "Multiple shoot regeneration from cotyledonary node explants on B5 medium with growth regulators (Kinman)", "conditions": "percentage of explants that formed shoots; B5 shoot initiation medium, hormone concentrations in μM", "procedure": "(§1) Explant preparation. Guar seeds of two American cultivars (Lewis and Kinman; e.g. (Undersander et al., 1991) were surface sterilized in concentrated sulphuric acid for 10 min followed by four washes in ice cold sterile distilled water. Subsequently the seeds were treated with 10% commercial bleach (containing 6.0% free chlorine) for 5 min with a few drops of Tween 20 and washed thoroughly three to four times in sterile distilled water. The sterile seeds were sown in magenta boxes on MS medium (Murashige and Skoog, 1962) with 3% sucrose, 0.8% agar, pH 5.8, and germination was continued for 7-9 days under a 16 h/8 h day/night regime at 25° C. Three-four mm long cotyledonary node explants comprising the meristematic zone were excised from the seedlings and used for shoot regeneration and transformation.\n(§2) Shoot regeneration. Shoot regeneration was performed in two different phases; shoot initiation and shoot elongation. For shoot initiation, […] cotyledonary node explants were cultured with the adaxial surface touching the medium in Petri plates (FIG. 1A). The explants were cultured on Gamborg's B5 medium (Gamborg et al., 1968), supplemented with 3% (w/v) sucrose, 0.8% Phyto agar (Caisson Laboratories Inc.), pH 5.8 (shoot initiation medium, SIM) with different combinations of growth regulators (Table 1). […]"}, "[2]": {"system": "cotyledonary node explants of guar variety Lewis", "assay": "Multiple shoot regeneration from cotyledonary node explants on B5 medium with growth regulators (Lewis)", "conditions": "percentage of explants that formed shoots; B5 shoot initiation medium, hormone concentrations in μM", "procedure": "as §1, §2"}, "regenerated guar shoots": {"system": "regenerated guar shoots", "assay": "Root induction from regenerated guar shoots", "conditions": "regenerated guar shoots in rooting medium", "description": "Root induction from the regenerated shoots. Non-transgenic shoots (two weeks old) from the shoot elongation medium were subjected to two different rooting procedures. Five 10 mm long shoots were harvested from the shoot elongation medium (SEM), the basal region was cut in order to remove any callus or necrotic tissue and the shoot ends were dipped either in a lawn of Agrobacterium rhizogenes (strain ARqua1) and transferred to root induction medium 1 (Farhaeus medium (Dazzo and Hubbell, 1982) solidified with 0.9-1.0% Gelrite) or directly transferred to root induction medium 2 (½ MS salts, Gamborg's B5 vitamins, 2.5% sucrose, 0.5-2.00 mg/l indole 3-butyric acid (IBA), agar 0.8%, pH 5.8) without any Agrobacterium rhizogenes inoculum. To prepare the A. rhizogenes lawn, a single colony was inoculated in 2 ml liquid Farhaeus medium containing 250 mg/l streptomycin in a 10 ml culture tube and cultured for 2-3 days at 28° C. on a rotary shaker. When the O.D. (600 nm) reached 1.0, 50-120 μl of the suspension was spread on a solid Farhaeus plate containing 250 mg/l streptomycin and 0.3% Gelrite. Within 3 days the bacteria formed a lawn on the plate which was subsequently used for infecting the shoot bases. Roots developed within 4 weeks and the rooted plants were transferred to the soil and grown in a growth chamber at 30° C. and 12 hrs of light.\nStudy of root anatomy. […]"}}, "data": [{"compound": "c1ccc(CNc2ncnc3nc[nH]c23)cc1", "note": "[BAP 4.44, 6-benzylaminopurine]", "values": [{"measurement": "Shoot morphogenesis frequency (%) in the genotype Kinman", "setting": "[1]", "result": 26.49, "unit": "%"}, {"measurement": "Shoot morphogenesis frequency (%) in the genotype Lewis", "setting": "[2]", "result": 25.89, "unit": "%"}]}, {"compound": "O=C(O)CCCc1c[nH]c2ccccc12", "note": "[IBA, indole 3-butyric acid]", "values": [{"measurement": "shoots that formed callus at the base", "setting": "regenerated guar shoots", "result": "more than 90%"}]}, {"compound": "O=C(Nc1ccccc1)Nc1cnns1", "note": "[TDZ 9.10, Thidiazuron]", "values": [{"measurement": "Shoot morphogenesis frequency (%) in the genotype Kinman", "setting": "[1]", "result": 33.33, "unit": "%"}, {"measurement": "Shoot morphogenesis frequency (%) in the genotype Lewis", "setting": "[2]", "result": 31.67, "unit": "%"}]}]}
